Bridge positions count the residues as written; N and C are the ends. Peptide text beside a SMILES is read from it.
Tests used:
[1] = In vitro metabolic stability in rat plasma; format: in vitro ADME; conditions: 1 μM, 37° C., up to 120 min
Procedure: The linear and macrocyclic compounds 1-14 and 23-26 (SEQ ID NOs: 1-14 and 23-26) were incubated in concentration 1 μM with rat plasma (Sprague-Dawley, male; 400 μl) for different time points (0, 20, 40, 60 or 120 min) at 37° C. The incubation was terminated by acetonitrile. The collected samples were centrifuged for 20 min at 2272×g and analyzed. io Stock solutions were prepared using 50% DMSO, and the compounds were spiked 1/100 to incubation to have final DMSO content of 0.5%. The samples were analyzed by UHPLC/PDA with high resolution mass spectrometry (QE-Orbitrap-MS on DDI mode) to monitor disappearance of the compound. Enalapril 1 μM was used as a disappearance rate control. For analysis of compounds 9, 10, 13 and 14 stock solutions were prepared with PBS, and samples were analyzed by UHPLC-ToF mass spectrometry. The analytical method was optimized by using the parent compounds for optimum chromatographic properties (peak shape and retention) and mass spectrometric ionization. The ion chromatograms were extracted from the total ion chromatograms using calculated monoisotopic accurate masses with 5 mDa window. Disappearance was based on LC/MS peak areas, marking 0 min as 100%.
The first-order rate constants k (min-1) of the metabolism were obtained from the slope of time versus logarithm (% of remaining compound) plot using Excel software. The in vitro half-life (t1/2) of study compound is defined as: t1/2=In2/k. Calculated half-life is based on compound disappearance from rat plasma.

GRP78-NBD = assay: Binding to GRP78-NBD Kd (μM)
Description: Table printed on a drawing sheet, FIG. 5B
Head of the field: Binding to GRP78-NBD Kd (μM)
GRP78-NBD is shown in a translucent surface model along with its cartoon trace. The Cys-Cys bond in compound 12 (SEQ ID NO: 12) is shown in sticks.
The binding affinities are obtained by a microscale thermophoresis-based cell-free assay.
GSK2606414 was used to inhibit PERK signaling and KIRA6 to inhibit IRE1alpha signaling. * p<0.05, ** p<0.01, *** p<0.001, **** p<0.0001 one-way ANOVA is test with post-hoc Fisher's LSD test for pairwise comparison vs MPP+ negative control. # p<0.05, ## p<0.01, ### p<0.001, #### p<0.0001 one-way ANOVA test with post-hoc Fisher's LSD test for pairwise comparison between effect of compound alone and its combination with UPR signal inhibitor.
Where the first naming reader finds the target: head: Binding to GRP78-NBD Kd (μM)

[2] = test system: dopaminergic TH-positive neurons injured with MPP+; assay: Dependence of neuroprotective activity on UPR pathway signaling (MPP+ injured mesencephalic neurons with PERK or IRE1alpha inhibitor); format: cell-based, rat; conditions: for neuroprotective effect in the presence of PERK inhibitor GSK2606414: GSK2606414 added 1 h before test compound; for neuroprotective effect in the presence of IRE1alpha inhibitor KIRA6: KIRA6 added 1 h before test compound
Procedure: CDNF and MANF protect cells from ER stress-induced cell dysfunction or cell death, such as apoptosis by modulating cellular responses to ER stress. […] Binding of compounds to GRP78-NBD was assessed in a cell-free binding assay using purified recombinant GRP78-NBD and synthesized peptides. As GRP78 also serves as a critical ligand of the three receptors of the unfolded protein response (UPR) pathway, […], PERK and ATF6, the dependency of the compounds' neuroprotective effects on UPR signaling was also tested.
The neuronal cell culture, MPP+ intoxication, immunostaining and analysis of neuroprotective effects of compounds were performed as in Example 1. PERK inhibitor GSK2606414 (2 µM , Sigma) or IRE1alpha inhibitor KIRA6 (2 µM , Sigma) were added to the culture 1 h before addition of the test compounds.

[3] = Brain microdialysis (striatal interstitial fluid) after intravenous bolus; format: in vivo, male Sprague-Dawley rats; conditions: single 10 mg/kg intravenous bolus, microdialysis 4 hours
Procedure: Microdialysis probes were inserted to the ventral striatum of rats through implanted guide […] cannulas and perfused by aCSF. Compound 14 was administered as a single 10 mg/kg intravenous bolus injection and microdialysis samples were collected in 20-min interval for 4 hours. The brain interstitial fluid (ISF) concentrations of the compound were determined by LC-MS/MS and normalized to the recovery-% of the microdialysis membrane (determined by in vitro experiments).
Brain microdialysis study was carried out on the separate group of awake animals treated intravenously with compound 14. One week before the microdialysis experiment Sprague- Dawley rats were implanted with a guide cannula in the striatum at the following coordinates: AP +0.6 mm; L −3.0 mm; V −2.8 mm, providing the final V −6.8 mm for the tip of the microdialysis probe. On the day of the experiment a microdialysis probe (Eicom A-I: 0.22 mm O.D., 4 mm membrane length with cut-off 50 kDa) were inserted into the guide cannula and perfused at a constant flow-rate of 0.1 μL/min with artificial cerebrospinal fluid (aCSF) solution. […] The brain intrastitial fluid concentrations of the compound were analysed by UHPLC-MS/MS. […] Determined recovery percentage (29.3%) was used for correction of the data obtained in microdialysis study.

[4] = In vitro metabolic stability in human plasma; format: in vitro ADME; conditions: 1 μM, 37° C., up to 120 min
Procedure: s Metabolic stability studied using human plasma over the time period of 120 min, with initial test concentration of 1 μM. Samples were analyzed using LC/QE-orbitrap-MS. Calculated half-life is based on compound disappearance in human plasma.
The linear or macrocyclic compounds 1-8, 11-14 and 23-24 (SEQ ID NOs: 1-8, 11-14 and 23-26) were incubated in concentration 1 μM with human plasma (mixed gender, 400 μl) for different time points (0, 20, 40, 60 or 120 min) at 37° C. The incubation was terminated by acetonitrile. The collected samples were centrifuged for 20 min at 2272×g and analyzed. The samples were analyzed by UHPLC/PDA with high resolution mass spectrometry (QE-Orbitrap-MS on DDI mode) to monitor disappearance of the compound. Propanthelin […] bromide 1 μM was used as a disappearance rate control. The analytical method was optimized by using the parent compounds for optimum chromatographic properties (peak shape and retention) and mass spectrometric ionization. The Ion chromatograms were extracted from the total ion chromatograms using calculated monoisotopic accurate masses with 5 mDa window. Disappearance was based on LC/MS peak areas, marking 0 min as 100%. The first-order rate constants k (min-1) of the metabolism were obtained from the slope of time versus logarithm (% of remaining compound) plot using Excel software.

Compound | stability in rat plasma as compared to linear counterpart [1] | Kd (GRP78-NBD) [µM] | neuroprotective effect in the presence of PERK inhibitor GSK2606414 [2] | neuroprotective effect in the presence of IRE1alpha inhibitor KIRA6 [2] | penetration to the brain parenchyma (brain ISF, striatum) [3] | stability in human plasma as compared to linear counterpart [4]
CC[C@H](C)[C@@H]1NC(=O)[C@H](CCCCN)NC(=O)[C@H](CCCCN)NC(=O)[C@H](CC(C)C)NC(=O)[C@H](CCC(=O)O)NC(=O)[C@H](CCCCN)NC(=O)[C@H](C(C)C)NC(=O)[C@H](CCCNC(=N)N)NC(=O)[C@H](CC(C)C)NC(=O)[C@H](CCCCN)NC(=O)[C@H](CCC(=O)O)NC(=O)[C@H](C)NC(=O)[C@@H]2CSSC[C@H](NC(=O)[C@H]([C@@H](C)O)NC(=O)[C@H](CCC(=O)O)NC(=O)CNC(=O)[C@H](Cc3c[nH]c4ccccc34)NC(=O)[C@H](CC(=O)O)NC(=O)[C@H](CC(=O)O)NC(=O)[C@H](CC(C)C)NC1=O)C(=O)N[C@@H](CCCCN)C(=O)NCC(=O)N2 [Compound 8] (cyclo(AEKLRVKELKKILDDWGETCKGC); disulfide 20-23) | improved stability | – | – | – | – | –
C[C@@H]1NC(=O)[C@@H]2CSSC[C@H](NC(=O)[C@H](CCC(=O)O)NC(=O)[C@H](CCC(=O)O)NC(=O)CNC(=O)[C@H](Cc3c[nH]c4ccccc34)NC(=O)[C@H]([C@@H](C)O)NC(=O)[C@H](CCCCN)NC(=O)[C@H](CCC(=O)O)NC1=O)C(=O)N[C@@H](CCCNC(=N)N)C(=O)N[C@@H](C)C(=O)N2 [Compound 12, WGEECRACAEKT] (cyclo(ACAEKTWGEECR); disulfide 2-11) | – | 1.65 | – | – | – | –
CC[C@H](C)[C@@H]1NC(=O)[C@H](CO)NC(=O)[C@H](CCCCN)NC(=O)[C@H](CCC(=O)O)NC(=O)[C@H](C)NC(=O)[C@@H]2CSSC[C@H](NC(=O)[C@H]([C@@H](C)O)NC(=O)[C@H](CCC(=O)O)NC(=O)CNC(=O)[C@H](Cc3c[nH]c4ccccc34)NC(=O)[C@H](CC(=O)O)NC(=O)[C@H](CC(=O)O)NC(=O)[C@H](CC(C)C)NC1=O)C(=O)N[C@@H](CCCCN)C(=O)NCC(=O)N2 [Compound 10, KSILDDWGETCKGCAE] (cyclo(AEKSILDDWGETCKGC); disulfide 13-16) | improved stability | – | abolished | abolished | – | –
C[C@@H]1NC(=O)[C@@H]2CSSC[C@H](NC(=O)[C@H]([C@@H](C)O)NC(=O)[C@H](CCC(=O)O)NC(=O)CNC(=O)[C@H](Cc3c[nH]c4ccccc34)NC(=O)[C@H](CO)NC(=O)[C@H](CCCCN)NC(=O)[C@H](CCC(=O)O)NC1=O)C(=O)N[C@@H](CCCCN)C(=O)NCC(=O)N2 [Compound 14, WGETCKGCAEKS] (cyclo(AEKSWGETCKGC); disulfide 9-12) | improved stability | 1.5 | abolished | abolished | penetration | –
CC[C@H](C)[C@@H]1NC(=O)[C@H](CCC(N)=O)NC(=O)[C@H](CCCCN)NC(=O)[C@H](CC(C)C)NC(=O)[C@H](CCC(=O)O)NC(=O)[C@H](C)NC(=O)[C@H](C(C)C)NC(=O)[C@H](CCCNC(=N)N)NC(=O)[C@H](CCSC)NC(=O)[C@H](CCCCN)NC(=O)[C@H](CCCNC(=N)N)NC(=O)[C@H](CC(C)C)NC(=O)[C@H](CC(=O)O)NC(=O)[C@H](C(C)C)NC(=O)[C@H](CCC(=O)O)NC(=O)[C@H](C)NC(=O)[C@@H]2CSSC[C@H](NC(=O)[C@H](CCC(=O)O)NC(=O)[C@H](CCC(=O)O)NC(=O)CNC(=O)[C@H](Cc3c[nH]c4ccccc34)NC(=O)[C@H](CO)NC(=O)[C@H](Cc3c[nH]cn3)NC(=O)[C@H](CC(C)C)NC1=O)C(=O)N[C@@H](CCCNC(=N)N)C(=O)N[C@@H](C)C(=O)N2 [Compound 2] (cyclo(ACAEVDLRKMRVAELKQILHSWGEECR); disulfide 2-26) | improved stability | – | – | – | – | improved stability
C[C@@H]1NC(=O)[C@@H]2CSSC[C@H](NC(=O)[C@H]([C@@H](C)O)NC(=O)[C@H](CCC(=O)O)NC(=O)CNC(=O)[C@H](Cc3c[nH]c4ccccc34)NC(=O)[C@H](CO)NC(=O)[C@H](CCCCN)NC(=O)[C@H](CCC(=O)O)NC1=O)C(=O)N[C@@H](CCCCN)C(=O)NCC(=O)NCC(=O)N2 [Compound 26, WGETCKGGCAEKS] (cyclo(AEKSWGETCKGGC); disulfide 9-13) | improved stability | – | – | – | – | improved stability

— patent US20230391841A1, “MACROCYCLIC PEPTIDES” (Herantis Pharma OYJ, priority 2019, published 2023)
